Laboratory results taken from PMC6562126, “Identification and characterization of a carnitine transporter in Acinetobacter baumannii” (MicrobiologyOpen, 2018).

What was measured:
[1] = target: T1, Aci01347 (Acinetobacter baumannii, UniProt D0C9N4); assay: […]-choline uptake in E. coli MKH13 expressing Aci01347; assay type: cell-based; conditions: 500 µM substrate; KPi 25 mM pH 7.5, 0.2 osmol/kg, 37 °C, glucose-energised cells; labelled compound
T1 construct: gene HMPREF0010_01347; N-terminal His6 tag, pBAD/HisA; expressed in E. coli MKH13 (no compatible solute transporters)
T1 sequence (D0C9N4 1-550): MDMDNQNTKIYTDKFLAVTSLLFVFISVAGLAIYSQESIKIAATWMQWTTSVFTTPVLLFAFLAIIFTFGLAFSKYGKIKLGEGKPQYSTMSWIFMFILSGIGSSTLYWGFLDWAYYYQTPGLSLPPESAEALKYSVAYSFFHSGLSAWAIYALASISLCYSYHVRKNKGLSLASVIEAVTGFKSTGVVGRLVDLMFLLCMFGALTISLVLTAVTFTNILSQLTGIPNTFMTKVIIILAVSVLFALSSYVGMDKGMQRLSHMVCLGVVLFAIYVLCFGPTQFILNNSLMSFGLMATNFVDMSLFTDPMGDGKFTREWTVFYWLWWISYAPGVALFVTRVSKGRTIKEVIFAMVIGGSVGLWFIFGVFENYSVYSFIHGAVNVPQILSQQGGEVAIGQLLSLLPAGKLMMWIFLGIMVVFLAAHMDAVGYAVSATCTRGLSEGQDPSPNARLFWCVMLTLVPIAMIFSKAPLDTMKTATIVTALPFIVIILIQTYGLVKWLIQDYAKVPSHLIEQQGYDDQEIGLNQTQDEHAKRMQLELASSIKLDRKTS

[2] = target: T1, Aci01347; assay: competition with […]-choline uptake in E. coli MKH13 expressing Aci01347; assay type: cell-based; conditions: read-out: % inhibition at 0.5 mM

Structure (SMILES)	[14C]-choline uptake in E. coli MKH13 expressing Aci01347 [1]	inhibition at 500 µM [2]
C[N+](C)(C)CCO [choline, 2-hydroxyethyl trimethylammonium chloride]	These data demonstrate that Aci01347 translocates choline.	
CC1=NCC[C@@H](C(=O)O)N1 [ectoine]		9.2%
C[N+](C)(C)CC(=O)[O-] [glycine betaine]		14.5%
C[N+]1(C)CCC[C@H]1C(=O)[O-] [proline betaine]		2.4%
O=C(O)[C@@H]1CCCN1 [proline]		4.6%
